Numbered stars: 1 amine (or outer) side, 2 acyl side, 3 side chain; on linkers, the order of the positions; unused ones are H or OH. Peptide text beside a SMILES is read from it. * marks the point of attachment. X1 = Brc1ccc2c(c1)-c1cc(N*)ccc1C2; Suc = O=C(CCC(=O)[*:2])[*:1]
Tests used:
Myzus persicae [1] = experiment: Topical application by spraying, air brush; type: in vivo; settings: 750 μl, 1×10^−5M of each peptide in Tween 24 0.1%, counted 48 hours post spray
Method: Aphids were exposed to test peptides in the absence of additional external stress conditions.
Brassica rapa (Chinese cabbage; Wong Bok) were infested with 30 adult Myzus persicae aphids per plant. Aphids were left at least 2 hours to settle and begin feeding from the host plant.
Spraying took place inside an externally vented fume cupboard. […] To ensure spray tracking, all sprayed solutions had amaranth dye added, allowing the full surface of the plant to be evenly coated with the aerosolised compound.
The plants to be sprayed were placed inside a plastic disposal bag, inside the fume cupboard. This was used to control the area exposed to the aerosolised liquid, to avoid extensive spraying and cleaning inside the fume cupboard. The bag was further lined with absorbent paper towel to again help contain and control spray.
Each experiment had three controls:
i) no vehicle or peptide air spray only, negative control to assess effect of spraying on aphid ability to remain attached to the plant; ii) vehicle spray only (Tween 24 0.1%); and iii) Imidacloprid positive control (28.3 μM).
Imidacloprid was always applied last to prevent any possibility of stray pesticide being left inside the disposal bag and contaminating a test peptide applied plant.
Spray volumes for all solutions for this experiment 750 μl.
A clean air brush (ABEST AC06k30) was loaded with 750 μl of peptide solution diluted in […] 0.1% vehicle. For this experiment there were three test conditions: 1895 alone (1×10^−5M); 2129 alone (1×10^−5M); and a simultaneous co-application of 1895+2129 together (1×10^−5M of each peptide). During application, the air brush was held within the plastic bag and the compressor turned on. The air brush was then gently sprayed back and forth across the plant. […]
Post peptide application, each condition was placed into its own individual Bugdorm (Watkins and Doncaster, 44545), to prevent repulsed or displaced aphids moving from one condition to another. Numbers of alive and dead aphids on the plant were counted 48 hours post spray, and the presence of any fresh nymphs noted. […]

Myzus persicae [2] = experiment: Feeding of aphids with peptides in artificial diet; life span and fecundity; type: in vivo; settings: M. persicae on artificial diet containing the peptide; mean ± SE
Method: A standard artificial diet for M. persicae was produced as described in Van Emden (2009) and provided the basal diet to which neuropeptide analogues were added for screening purposes. Neuropeptide analogues were diluted individually in the artificial diet to a pre-determined recommended concentration as follows: 1895 (3.5×10^-5 M) and 2019 (2.0×10^-5 M). Feeding apparatus were constructed using a set-up developed by […] et al (2009). For this, a piece of Parafilm was stretched over a Plexiglas ring (h=4 cm, Ø=3 cm) and 100 μl of the artificial diet containing the desired neuropeptide analogue was pipette onto the Parafilm membrane. A second piece of Parafilm, stretched to 4 times the original thickness, was stretched over the original layer, sandwiching the artificial diet between two layers of Parafilm. A strip of Parafilm was wrapped around the circumference of the Plexiglas ring, sealing in the diet. A plastic ring (h=1.2 cm, Ø=3.4 cm) was subsequently placed over the Parafilm layer, creating a walled chamber in which to house test aphids in contact with the Parafilm layer containing the artificial diet. Finally, a small Petri dish (h=1 cm, Ø=3.6 cm), modified for ventilation with net cloth, was placed on top of each feeding apparatus to prevent aphid escape. To obtain aphids for use in experiments, reproducing anholocyclic adults were placed on individual excised leaves of Chinese cabbage at densities of 5 adults per leaf and allowed to reproduce for 24 h. The stem of each excised leaf was held within a 0.5 mL Eppendorf tube containing water via a punctured hole in the Eppendorf lid, and placed individually within a microcage (L=4 cm, Ø=9.5 cm). Following 24 h, adults were removed and resultant first instar nymphs (<1 day old and synchronised in age to within 24 h) retained. Nymphs were allowed to develop on the Chinese cabbage for 5 days. On day 5, (3rd instar) nymphs were transferred onto the artificial diet containing a neuropeptide analogue at densities of 1 per feeding chamber and monitored daily until death. Aphids were transferred to fresh artificial diet (containing neuropeptide analogue) every 5 days. Life history traits recorded include age at first reproduction, number of nymphs produced per 24 h period, and lifespan. From these parameters, lifetime fecundity and daily fecundity were calculated. Control groups were set up involving aphids reared on the host plant, an artificial diet without a neuropeptide analogue, and an artificial diet containing the native CAPA neuropeptide.

Molecule | % Lethality (Myzus persicae [1]) | Age at 1st reproduction (Myzus persicae [2]) | Ave. daily fecundity (Myzus persicae [2]) | Days as reproducing adult (Myzus persicae [2]) | Life span (Myzus persicae [2]) | Lifetime fecundity (Myzus persicae [2])
CC[C@H](C)[C@H](NC(=O)[C@H](CCCNC(=N)N)NC(=O)[C@@H]1CCCN1C(=O)[C@@H](NC(=O)[C@H](C)NC(=O)CCC(=O)Nc1ccc2c(c1)-c1cc(Br)ccc1C2)[C@@H](C)O)C(N)=O [compound 2129, 2Abf-Suc-ATPRI-NH2] ({X1-Suc}-ATPRI-NH2) | 30% | 12.4 ± 0.7 days | 1.2±0.1 nymphs | 7.17 ± 1.5 | 21.0 ± 2.3 days | 8.8 ± 2.0 nymphs
2Abf-Suc-FGPRL-NH2 [compound 1895] | 27% | 11.5 ± 0.5 days | 1.1±0.1 nymphs | 5.8 ± 1.8 | 19.8 ± 2.5 days | 6.4±2.0 nymphs

— patent US20220039395A1, “INSECT CONTROL AGENTS” (priority 2018, published 2022)
